# Data: ChEMBL document CHEMBL1137802, “Specific antioxidant activity of caffeoyl derivatives and other natural phenolic compounds: LDL protection against oxidation and decrease in the proinflammatory lysophosphatidylcholine production” (J Nat Prod, 2001)
# What was measured:
# Format in all cases: functional, cell-free
# [1] = Antioxidant activity against Cu2+-induced lipid peroxidation in human plasma LDL assessed as vitamin E consumption at 20 umol/L preincubated for 1 hr before Cu2+ challenge measured after 45 mins
# [2] = Antioxidant activity against Cu2+-induced lipid peroxidation in human plasma LDL assessed as vitamin E consumption at 10 umol/L preincubated for 1 hr before Cu2+ challenge measured after 30 mins
# [3] = Antioxidant activity against Cu2+-induced lipid peroxidation in human plasma LDL assessed as lysophosphatidylcholine formation at 10 umol/L preincubated for 1 hr before Cu2+ challenge measured after 210 mins
# [4] = Antioxidant activity against Cu2+-induced lipid peroxidation in human plasma LDL assessed as conjugated diene formation at 5 umol/L preincubated for 1 hr before Cu2+ challenge measured after 60 mins
# [5] = Antioxidant activity against Cu2+-induced lipid peroxidation in human plasma LDL assessed as vitamin E consumption at 20 umol/L preincubated for 1 hr before Cu2+ challenge measured after 180 mins
# [6] = Antioxidant activity against Cu2+-induced lipid peroxidation in human plasma LDL assessed as lysophosphatidylcholine formation preincubated for 1 hr before Cu2+ challenge
# [7] = Antioxidant activity against Cu2+-induced lipid peroxidation in human plasma LDL assessed as vitamin E consumption at 20 umol/L preincubated for 1 hr before Cu2+ challenge measured after 60 mins
# [8] = Antioxidant activity against Cu2+-induced lipid peroxidation in human plasma LDL assessed as lysophosphatidylcholine formation at 5 umol/L preincubated for 1 hr before Cu2+ challenge measured after 150 mins
# [9] = Antioxidant activity against Cu2+-induced lipid peroxidation in human plasma LDL assessed as maximal compound concentration at 10 umol/L preincubated for 1 hr before Cu2+ challenge measured after 90 mins relative to compound present at 0 min
structure (smiles),measurement,setting,value
CC(C)(Sc1cc(C(C)(C)C)c(O)c(C(C)(C)C)c1)Sc1cc(C(C)(C)C)c(O)c(C(C)(C)C)c1,Activity,[1],7.5%
same,Activity,[2],17.8%
same,Activity,[3],9.1%
same,Activity,[4],4.1%
same,Activity,[5],0%
same,Activity,[6],Dose-dependent effect
same,Activity,[7],5.5%
same,Activity,[8],17.5%
same,Activity,[9],27.2%
